# Experimental data: patent US11540515B2, “Use of dialkoxybenzenes for control of honey bee mite varroa destructor” (Simon Fraser University, priority 2018, dated 2023)
# Entries after “also recorded” stand apart in the source; their conditions may differ.
# Experiments:
# honey bees = assay: Bee mortality in hoarding cages, 3c{3,6} provided in sugar solution; assay type: in vivo, Apis mellifera
# Experimental: 3c{3,6} provided in sugar solution: The test was conducted on twenty freshly collected bees in hoarding cages as described above. […] In addition, no differences were apparent in the general behavior of the honeybees. Furthermore, honey bees can ingest compound 3c{3,6} without harm and without increase in mortality.
# Varroa mites [1] = assay: Example 6 behavioral dose response bio-assays of Varroa mites; assay type: in vivo
# Description: Foragers were collected at the entrance of one or more honey bee hives by aspiration into a jar, when bees were flying back to the colony.
# Initially, nurses were collected from an open brood frame of a honey bee hive. Bees apparently attending the brood were targeted for collection. As time passed and temperatures started to drop no open brood was observed, therefore subsequent collections targeted bees around sealed brood. At the end of the sampling period no sealed brood was present, so bees taken from the middle frame of a brood chamber were considered nurses.
# Both foragers and nurses were immediately transferred to individual plastic cages (118×98×81 mm: H×W×D), fed with syrup (2:1) and kept overnight in an incubator at 30° C. and 70% RH. Next day, cages were inspected for any dead bees to be removed before freeze killing the bees on dry ice.
# For Varroa mite collection, adult bees were taken from the brood chamber's central frames of a mite-infested hive using a glass jar. Bees were fed with syrup (2:1), and kept in an incubator at 30° C. and 70% RH until needed. First collections were made from frames with open and sealed brood, later only from sealed brood frames.
# Mite-infested bees in the glass jar were dusted with icy sugar and shaken over a large plastic weighing boat. Dislodged Varroa were immediately transferred with a fine paint brush to a wet filter paper in a plastic petri dish to avoid desiccation. Individual mites were placed then onto the middle of a glass petri dish bottom (10 cm diameter) with a fresh freeze-killed forager or nurse bee on opposite sides of the plate. Synthesized compounds were applied onto a 1 cm^2 Parafilm square attached to the center of the petri dish cover's inner face, Hexane was used as control.
# The bio-assays with a forager and a nurse bee, Varroa mite, and synthesized compounds were set in glass petri dishes placed into an incubator at 30° C. and 70% relative humidity. […] Mite paralysis and death were recorded after 3 h and 5 h.
# honey bee antennae = assay: Electroantennography (EAG) on honey bee antennae stimulated with nurse bee headspace odor; parameters: species or system Apis mellifera
# Description: (§1) In the electroantennography (EAG), the Varroa foreleg or bee antennae were used for the assay. The organs were stimulated by puffs of nurse honeybee odor, or clean air (control). Briefly, once a foreleg or bee antenna preparation was found responsive to a positive stimulus, the tested chemical was blown over the leg/antenna with or without positive stimuli. Headspace of five nurse bees was used as a positive stimulus. This stimuli were selected for Varroa following the procedure described, for example, in Eliash, N. et al., (2014) PLoS One, (2014) 9(12): e116127, incorporated herein by reference in its entirety, and following dose response tests on nurse antennae challenged with headspace of 1, 5 and 10 nurse or forager bees. Electrophysiological responses of isolated Varroa foreleg and bee antennae were recorded using Synthech equipment, and the order of stimuli was as explained in Singh, K. N. et al., (2014) Apidologie, 46: 380-391, incorporated herein by reference in its entirety. The response amplitude was recorded for each stimulus and normalized relative to air.
# Varroa destructor mites = assay: Example 3 mite paralysis/death in the absence of bees; assay type: in vivo; conditions: no bees
# Experimental: Experiments were performed in the dishes: i) dose response assays with a single compound at different doses of compound on the Parafilm (1 ng, 10 ng, 100 ng, 1 μg, 10 μg, 100 μg, 1 mg and 10 mg), ii) a screen with six compounds, all at a 1 mg dose, iii) an assay with blends of compounds 3c{3,6} and 3c{6,6}, and iv) one assay without bees (only to check for mite paralysis and death), with compounds 3c{3,6} and 3c{6,6}(pure or 1:1 blend), at 0.5 and 1 mg doses.
# Compounds 3c{3,6}, 3c{6,6} were tested on mites in the absence of bees, alone and as a 1:1 blend. Mite paralysis and death were checked every 30 min, up to 4.5 h after initial exposure. Four doses were tested: 0.2, 0.5, 1 and 10 mg.
# Varroa = assay: Example 5 Varroa death and paralysis assay, single compounds and blend; parameters: species or system Varroa destructor; conditions: in vivo
# Experimental: Assays were done in 9 cm glass Petri dishes. A 2.5×2.5 cm piece of Parafilm was stuck to the lid of the dish, in the middle. 120 μL water were put on filter paper in the middle of the plate. The Parafilm received 10 μL of hexane, either pure (controls) or with the compound (treatments). The bottom of the dish received one freshly thawed nurse and one freshly thawed forager, placed at opposite sides. One mite was placed between the nurse and the forager, the lid was closed and groups of dishes were placed in an incubator at 30° C. Observation times were at 3 h, 5 h and 20 h. Mites were scored for whether the mite could move normally, was paralyzed (had difficulty moving) or dead (not moving). Four types of experiment were performed in the dishes: i) dose response assays with a single compound at different doses of compound on the Parafilm (1 ng, 10 ng, 100 ng, 1 μg, 10 μg, 100 μg, 1 mg) an assay with blends of compounds 3c{3,6} and 3c{6,6} (pure or 1:1 blend) at 0.5 mg and […].
# young bees = assay: Example 2 assay on mites phoretic on young bees: condition of the bees; assay type: in vivo, Apis mellifera; conditions: end of experiment
# Experimental: (§2) The experiments were conducted in glass petri dish under control environment as described above in Example 1. Two sets of experiments were conducted compound 3c{3,6}:
# (§3) 2. Assay on mites phoretic on young bees. In this experiment 100 microgram/μ1 solution and its dilutions were used. Two mites were placed on each living young bee.
# (§4) In the second assay the percentage of mites dropping from bees as function of time was measured (FIG. 2).
# Varroa mites [2] = assay: Evaluation of acaricidal effect: emerging bees loaded with Varroa mites in glass petri dish, compound on Parafilm; assay type: in vivo, Varroa destructor
# Experimental: The effect of the compounds was checked in free moving-mites freshly collected from the bottom board using fine paint brush. All collected Varroa were kept on emerging bees at room temperature until the experiment.
# Compounds (code-labeled, Table 1) were prepared in hexane:ethyl acetate (1:1) in 10 mM concentration according to instructions. Dilutions only of compound “A” was prepared. […] This setup enabled the testing of all the compounds and to save the mites.
# The assay was conducted in glass petri dish (90 mm diameter and 17 mm deep glass) containing moistened filter paper. Five emerging bees loaded with two Varroa mites were put into each plate. The bees were provided with candy (60% of pollen and 40% sugar). 10 μl or 30 μl volume of each compound or control mix was placed on Parafilm paper (5×5 cm) on the plates cover.
# Varroa foreleg = assay: Electroantennography (EAG) on Varroa foreleg stimulated with nurse bee headspace odor; parameters: species or system Varroa destructor
# Description: as §1
# [3] = test system: Varroa mites phoretic on young bees; assay: Example 2 assay on mites phoretic on young bees (mite fall); assay type: in vivo, Varroa destructor; conditions: 100 microgram/μl solution and dilutions; end of experiment
# Experimental: as §2, §3, §4
structure (smiles),measurement,setting,value
"C=CCOc1ccc(OCCC)cc1 [3c{3,6}, 1-allyloxy-4-propoxybenzene]",effect on the honeybees,honey bees,did not have negative effect
same,bees died at the end of experiment,"honey bees; after 72 hours, treated group (control 21%)",5%
same,mites dead,Varroa mites [1]; 100 μg,half of the mites dead
same,mite paralysis/mortality,Varroa mites [1]; 1 mg,100%
same,mite paralysis/mortality (words),Varroa mites [1]; 1 mg,total effectivity; also recorded: all mites
same,doses at which mites were paralyzed or killed,Varroa mites [1]; FIG. 9 / FIG. 10,≥ 10 µg
same,response of honey bee antennae towards nurse bee head space odor,honey bee antennae,not affected
same,mite paralysis+death,"Varroa destructor mites; 0.2 mg, 4.5 h",40%
same,mite paralysis+death,"Varroa destructor mites; 0.5 mg, 4.5 h",80%
same,mite paralysis or death,"Varroa destructor mites; 1 mg, up to 4.5 h",100%
same,mite paralysis or death,"Varroa destructor mites; 10 mg, 4.5 h",100%
same,acaricidal activity alone,Varroa,acaricidal
same,condition of bees,young bees,remained in perfect shape
same,miticidal effect of dilutions,"Varroa mites [2]; dilutions of 10 mM solution, any concentration",no miticidal effect
same,acaricidal effect,"Varroa mites [2]; highest amount tested (30 μl), end of 24 h",clear acaricidal effect
same,Varroa foreleg responses towards head space odor of nurse bees,Varroa foreleg,decreases
same,mites dropping from bees as function of time (FIG. 2),[3],dropped dead off the bees
